Test results from patent publication US7476650B2, “Enzyme inhibition” (Yale University, priority 1999, dated 2009).
Where a SMILES comes first, the peptide text is derived from it. The star is where a group is joined. X1 = CC(C)C[C@H](N*)C(=O)[C@@]1(C)CO1

The compounds below were run against T1, chymotrypsin-like activity of purified bovine erythrocyte 20S proteasome (Bos taurus, UniProt Q32KL2) (assay: Enzyme kinetic assay, chymotrypsin-like activity (Suc-LLVY-AMC)). Settings: Examples 9 and 10; in M-1s-1.
T1 construct: from tissue; host or cells: bovine erythrocytes (red blood cells)
Type: biochemical
Description: (§1) We investigated the potency of inhibitors of various length. Mono-, di-,tri- and tetraleucine α′,β′-epoxides were ranked by determination of the kobs/[I] values for inhibition of the chymotrypsin-like, trypsin-like, and PGPH activities of purified bovine erythrocyte 20S proteasome.
(§2) Purified bovine erythrocyte proteasome was enzymatically assayed using a variety of different substrates and inhibitors. In order to evaluate the rates of proteolytic inactivation by inhibitors, kassociation (kobs/[I]) values were determined using fluorogenic peptide substrates over a range of inhibitor concentrations.

Compound | kobs/[I] for chymotryptic-like activity using Suc-LLVY-AMC
CC(=O)N[C@@H](Cc1ccccc1)C(=O)N[C@@H](CC(C)C)C(=O)N[C@@H](CC(C)C)C(=O)N[C@@H](CC(C)C)C(=O)[C@@]1(C)CO1 [P4 phenyl] | 37,000
CC(=O)N[C@@H](Cc1cccc2ccccc12)C(=O)N[C@@H](CC(C)C)C(=O)N[C@@H](CC(C)C)C(=O)N[C@@H](CC(C)C)C(=O)[C@@]1(C)CO1 [P4 I -naphthyl] | 29,000
CC(=O)N[C@@H](CC(C)C)C(=O)N[C@@H](Cc1cccc2ccccc12)C(=O)N[C@@H](CC(C)C)C(=O)N[C@@H](CC(C)C)C(=O)[C@@]1(C)CO1 [P3 1-naphthyl] | 31,000
CC(=O)N[C@@H](CC(C)C)C(=O)N[C@@H](CC(C)C)C(=O)N[C@@H](Cc1cccc2ccccc12)C(=O)N[C@@H](CC(C)C)C(=O)[C@@]1(C)CO1 [P2 1-naphthyl] | 29,000
CC(=O)N[C@@H](CC(C)C)C(=O)N[C@@H](Cc1ccccc1)C(=O)N[C@@H](CC(C)C)C(=O)N[C@@H](CC(C)C)C(=O)[C@@]1(C)CO1 [Ac-LFLL-epoxide] | 8,500
CC(C)C[C@H](NC(=O)[C@@H](N)CCc1ccccc1)C(=O)N[C@@H](Cc1ccccc1)C(=O)N[C@@H](CC(C)C)C(=O)[C@@]1(C)CO1 [compound 18] | 5200
CC(=O)N[C@@H](CCc1ccccc1)C(=O)N[C@@H](CC(C)C)C(=O)N[C@@H](CC(C)C)C(=O)N[C@@H](CC(C)C)C(=O)[C@@]1(C)CO1 [P4 methylphenyl] | 63,000
CC(=O)N[C@@H](Cc1ccc(C(=O)c2ccccc2)cc1)C(=O)N[C@@H](CC(C)C)C(=O)N[C@@H](CC(C)C)C(=O)N[C@@H](CC(C)C)C(=O)[C@@]1(C)CO1 [P4 p-benzoylphenyl] | 23,000

Same assay, conditions: Table 3

Compound | kobs/[I] Chymotrypsin-like [M⁻¹ s⁻¹]
CC(=O)N1CCC[C@H]1C(=O)N1CCC[C@H]1C(=O)N[C@@H](Cc1ccccc1)C(=O)N[C@@H](CC(C)C)C(=O)[C@@]1(C)CO1 [Ac-PPFL-Ex] | 6.4 ± 3.3
CC(=O)NCC(=O)N1CCC[C@H]1C(=O)N[C@@H](Cc1ccccc1)C(=O)N[C@@H](CC(C)C)C(=O)C1(C)CO1 (stereo partly drawn) [Ac-GPFL-Ex] | 5 ± 1
CC(=O)N[C@@H](C)C(=O)N[C@H](C(=O)N[C@@H](CC(C)C)C(=O)[C@@]1(C)CO1)C(C)C [Ac-AVL-Ex] | 10.8 ± 0.2
CC(=O)N1CCC(C(=O)N2CCC[C@H]2C(=O)N[C@@H](Cc2ccccc2)C(=O)N[C@@H](CC(C)C)C(=O)[C@@]2(C)CO2)CC1 [N-acetyl-piperidinecarbonyl-PFL-Ex] | 31.2 ± 0.6
CC(=O)NCC(=O)NCC(=O)N1CCC[C@H]1C(=O)N[C@@H](Cc1ccccc1)C(=O)N[C@@H](CC(C)C)C(=O)[C@@]1(C)CO1 [Ac-GGPFL-Ex] (Ac-GGPF-X1) | 170 ± 60
CC(=O)N1CCC[C@H]1C(=O)N[C@@H](Cc1ccccc1)C(=O)N[C@@H](CC(C)C)C(=O)[C@@]1(C)CO1 [Ac-PFL-Ex] | 42 ± 2

Same assay, conditions: Table 5

Compound | kassoc = kobs/[I] (chymotrypsin-like activity inhibition) [M⁻¹ s⁻¹]
CC(=O)N[C@@H](CC(C)C)C(=O)N[C@@H](Cc1ccccc1)C(=O)N[C@@H](CC(C)C)C(=O)N[C@@H](CC(C)C)C(=O)[C@@]1(C)CO1 [Ac-LFLL-epoxide] | 8500

Same assay, conditions: pH 8; Table 4; inhibitor concentration range in parentheses; read-out: kassoc = kobs/[I] Chymotrypsin-like activity

Compound | kinact/KI [M⁻¹ s⁻¹]
CC(C)C[C@H](NC(=O)[C@@H](N)CCc1ccccc1)C(=O)N[C@@H](Cc1ccccc1)C(=O)N[C@@H](CC(C)C)C(=O)[C@@]1(C)CO1 [compound 18] | 5200

What follows are compounds tested on bovine aortic endothelial (BAE) cells (assay: BAE cell proliferation ([methyl-3H]-thymidine incorporation)). Settings: Table 5; five days incubation.
Type: cell-based
Procedure: BAE cells were cultured at 7% CO2 and were grown in DMEM supplemented with 10% FBS, 1% penicillin/streptomycin (GIBCO), and 1 mM sodium pyruvate.
Approximately 1000 BAE cells were plated into each well of a 96-well culture plate. After an overnight incubation, different concentrations of proteasome inhibitors were added and incubation was continued for another five days. […] Subsequently, 74 kBq of [methyl-^3H]-thymidine was added to each well of the plate and the plate was incubated for another additional 4 hours. Cells were harvested using a Skatron Cell Harvester and incorporated radioactivity was quantified using liquid scintillation. Proliferation of BAE cells was assayed in triplicate in the presence of different concentrations of peptide epoxides.
Perturbation of the proteasome activity can result in inhibition of cell growth, and can further lead to cell death at elevated concentration of the proteasome inhibitors. This provides an excellent cell-based assay to assess the importance of each catalytic activity of the 20S proteasome in degradation of proteins involved in cell growth. We measured inhibition of proliferation of bovine aortic endothelial (BAE) cells with our α′,β′-epoxyketone-based inhibitors with varying degree of specificity for the PGPH activity.

Compound | IC50 [µM]
CC(=O)N[C@@H](CC(C)C)C(=O)N[C@@H](Cc1ccccc1)C(=O)N[C@@H](CC(C)C)C(=O)N[C@@H](CC(C)C)C(=O)[C@@]1(C)CO1 [Ac-LFLL-epoxide] | 0.016

Same assay, conditions: Table 6; PGPH-directed inhibitors

Compound | IC50 [µM]
CC(=O)NCC(=O)N1CCC[C@H]1C(=O)N[C@@H](Cc1ccccc1)C(=O)N[C@@H](CC(C)C)C(=O)C1(C)CO1 (stereo partly drawn) [Ac-GPFL-Ex] | 58

What follows are compounds tested against T2, trypsin-like activity of purified bovine erythrocyte 20S proteasome (Bos taurus, UniProt Q2TBP0) (assay: Enzyme kinetic assay, trypsin-like activity (Boc-LRR-AMC)). Settings: Examples 9 and 10.
T2 construct: from tissue; host or cells: bovine erythrocytes (red blood cells)
Type: biochemical
Description: as §1, §2

Compound | kobs/[I] for tryptic-like activity using Boc-LRR-AMC
CC(=O)N[C@@H](Cc1ccccc1)C(=O)N[C@@H](CC(C)C)C(=O)N[C@@H](CC(C)C)C(=O)N[C@@H](CC(C)C)C(=O)[C@@]1(C)CO1 [P4 phenyl] | 5.5 M⁻¹ s⁻¹
CC(=O)N[C@@H](Cc1cccc2ccccc12)C(=O)N[C@@H](CC(C)C)C(=O)N[C@@H](CC(C)C)C(=O)N[C@@H](CC(C)C)C(=O)[C@@]1(C)CO1 [P4 I -naphthyl] | not measurable
CC(=O)N[C@@H](CC(C)C)C(=O)N[C@@H](Cc1cccc2ccccc12)C(=O)N[C@@H](CC(C)C)C(=O)N[C@@H](CC(C)C)C(=O)[C@@]1(C)CO1 [P3 1-naphthyl] | not measurable
CC(=O)N[C@@H](CC(C)C)C(=O)N[C@@H](CC(C)C)C(=O)N[C@@H](Cc1cccc2ccccc12)C(=O)N[C@@H](CC(C)C)C(=O)[C@@]1(C)CO1 [P2 1-naphthyl] | not measurable
CC(=O)N[C@@H](CC(C)C)C(=O)N[C@@H](Cc1ccccc1)C(=O)N[C@@H](CC(C)C)C(=O)N[C@@H](CC(C)C)C(=O)[C@@]1(C)CO1 [Ac-LFLL-epoxide] | not measurable
CC(C)C[C@H](NC(=O)[C@@H](N)CCc1ccccc1)C(=O)N[C@@H](Cc1ccccc1)C(=O)N[C@@H](CC(C)C)C(=O)[C@@]1(C)CO1 [compound 18] | 580 M⁻¹ s⁻¹
CC(=O)N[C@@H](CCc1ccccc1)C(=O)N[C@@H](CC(C)C)C(=O)N[C@@H](CC(C)C)C(=O)N[C@@H](CC(C)C)C(=O)[C@@]1(C)CO1 [P4 methylphenyl] | 5.4 M⁻¹ s⁻¹
CC(=O)N[C@@H](Cc1ccc(C(=O)c2ccccc2)cc1)C(=O)N[C@@H](CC(C)C)C(=O)N[C@@H](CC(C)C)C(=O)N[C@@H](CC(C)C)C(=O)[C@@]1(C)CO1 [P4 p-benzoylphenyl] | not measurable

Same assay, conditions: Table 3

Compound | kobs/[I] Trypsin-like [M⁻¹ s⁻¹]
CC(=O)N[C@@H](C)C(=O)N[C@H](C(=O)N[C@@H](CC(C)C)C(=O)[C@@]1(C)CO1)C(C)C [Ac-AVL-Ex] | 1.8 ± 0.1
CC(=O)NCC(=O)NCC(=O)N1CCC[C@H]1C(=O)N[C@@H](Cc1ccccc1)C(=O)N[C@@H](CC(C)C)C(=O)[C@@]1(C)CO1 [Ac-GGPFL-Ex] (Ac-GGPF-X1) | 1.3 ± 0.3

Same assay, conditions: in words

Compound | inhibition of the trypsin-like activity of the proteasome
CC(=O)NCC(=O)N1CCC[C@H]1C(=O)N[C@@H](Cc1ccccc1)C(=O)N[C@@H](CC(C)C)C(=O)C1(C)CO1 (stereo partly drawn) [Ac-GPFL-Ex] | no inhibition

Same assay, conditions: pH 8; Table 4; inhibitor concentration range in parentheses; read-out: kassoc = kobs/[I] Trypsin-like activity

Compound | kinact/KI [M⁻¹ s⁻¹]
CC(C)C[C@H](NC(=O)[C@@H](N)CCc1ccccc1)C(=O)N[C@@H](Cc1ccccc1)C(=O)N[C@@H](CC(C)C)C(=O)[C@@]1(C)CO1 [compound 18] | 580

What follows are compounds tested against T3, PGPH activity of purified bovine erythrocyte 20S proteasome (Bos taurus, UniProt Q3MHN0) (assay: Enzyme kinetic assay, PGPH activity (Z-LLE-AMC)). Settings: Examples 9 and 10.
T3 construct: from tissue; host or cells: bovine erythrocytes (red blood cells)
Type: biochemical
Procedure: as §1, with “proteasome. Enzyme kinetic assays were performed as described in Example 2.” for “proteasome.”
as §2

Compound | kobs/[I] for PGPH activity using Z-LLE-AMC
CC(=O)N[C@@H](Cc1ccccc1)C(=O)N[C@@H](CC(C)C)C(=O)N[C@@H](CC(C)C)C(=O)N[C@@H](CC(C)C)C(=O)[C@@]1(C)CO1 [P4 phenyl] | 78
CC(=O)N[C@@H](Cc1cccc2ccccc12)C(=O)N[C@@H](CC(C)C)C(=O)N[C@@H](CC(C)C)C(=O)N[C@@H](CC(C)C)C(=O)[C@@]1(C)CO1 [P4 I -naphthyl] | not measurable
CC(=O)N[C@@H](CC(C)C)C(=O)N[C@@H](Cc1cccc2ccccc12)C(=O)N[C@@H](CC(C)C)C(=O)N[C@@H](CC(C)C)C(=O)[C@@]1(C)CO1 [P3 1-naphthyl] | not measurable
CC(=O)N[C@@H](CC(C)C)C(=O)N[C@@H](CC(C)C)C(=O)N[C@@H](Cc1cccc2ccccc12)C(=O)N[C@@H](CC(C)C)C(=O)[C@@]1(C)CO1 [P2 1-naphthyl] | not measurable
CC(=O)N[C@@H](CC(C)C)C(=O)N[C@@H](Cc1ccccc1)C(=O)N[C@@H](CC(C)C)C(=O)N[C@@H](CC(C)C)C(=O)[C@@]1(C)CO1 [Ac-LFLL-epoxide] | not measurable
CC(=O)N[C@@H](CCc1ccccc1)C(=O)N[C@@H](CC(C)C)C(=O)N[C@@H](CC(C)C)C(=O)N[C@@H](CC(C)C)C(=O)[C@@]1(C)CO1 [P4 methylphenyl] | 50
CC(=O)N[C@@H](Cc1ccc(C(=O)c2ccccc2)cc1)C(=O)N[C@@H](CC(C)C)C(=O)N[C@@H](CC(C)C)C(=O)N[C@@H](CC(C)C)C(=O)[C@@]1(C)CO1 [P4 p-benzoylphenyl] | not measurable

Same assay, conditions: PGPH vs chymotrypsin-like

Compound | selectivity: fold higher kobs/[I] for inhibition of the PGPH activity than the chymotrypsin-like activity [fold]
CC(=O)NCC(=O)N1CCC[C@H]1C(=O)N[C@@H](Cc1ccccc1)C(=O)N[C@@H](CC(C)C)C(=O)C1(C)CO1 (stereo partly drawn) [Ac-GPFL-Ex] | 35

Same assay, conditions: Table 3

Compound | kobs/[I] PGPH [M⁻¹ s⁻¹]
CC(=O)N1CCC[C@H]1C(=O)N1CCC[C@H]1C(=O)N[C@@H](Cc1ccccc1)C(=O)N[C@@H](CC(C)C)C(=O)[C@@]1(C)CO1 [Ac-PPFL-Ex] | 10.6 ± 0.3
CC(=O)NCC(=O)N1CCC[C@H]1C(=O)N[C@@H](Cc1ccccc1)C(=O)N[C@@H](CC(C)C)C(=O)C1(C)CO1 (stereo partly drawn) [Ac-GPFL-Ex] | 190 ± 10
CC(=O)N[C@@H](C)C(=O)N[C@H](C(=O)N[C@@H](CC(C)C)C(=O)[C@@]1(C)CO1)C(C)C [Ac-AVL-Ex] | 12.7 ± 1.3
CC(=O)N1CCC(C(=O)N2CCC[C@H]2C(=O)N[C@@H](Cc2ccccc2)C(=O)N[C@@H](CC(C)C)C(=O)[C@@]2(C)CO2)CC1 [N-acetyl-piperidinecarbonyl-PFL-Ex] | 45.3 ± 2.2
CC(=O)NCC(=O)NCC(=O)N1CCC[C@H]1C(=O)N[C@@H](Cc1ccccc1)C(=O)N[C@@H](CC(C)C)C(=O)[C@@]1(C)CO1 [Ac-GGPFL-Ex] (Ac-GGPF-X1) | 170 ± 30
CC(=O)N1CCC[C@H]1C(=O)N[C@@H](Cc1ccccc1)C(=O)N[C@@H](CC(C)C)C(=O)[C@@]1(C)CO1 [Ac-PFL-Ex] | 32 ± 6

Same assay, conditions: pH 8; Table 4; inhibitor concentration range in parentheses; read-out: kassoc = kobs/[I] PGPH activity

Compound | kinact/KI [M⁻¹ s⁻¹]
CC(C)C[C@H](NC(=O)[C@@H](N)CCc1ccccc1)C(=O)N[C@@H](Cc1ccccc1)C(=O)N[C@@H](CC(C)C)C(=O)[C@@]1(C)CO1 [compound 18] | 11
